These results are taken from article PMC12010006, “Subnanomolar MAS-related G protein-coupled receptor-X2/B2 antagonists with efficacy in human mast cells and disease models” (Signal Transduction and Targeted Therapy, 2025).

Assay [1] deals with muscarinic acetylcholine receptors (mAChRs). The assay is described as follows: Ca2+ assay versus carbachol in LN229-MRGPRX2 cell line. The class given is cell-based, human. To be noted: 10 µM, carbachol 100 µM.
Assay [2] concerns the target T1, MRGPRX2 (Homo sapiens, UniProt Q96LB1).
T1 sequence (Q96LB1 1-330): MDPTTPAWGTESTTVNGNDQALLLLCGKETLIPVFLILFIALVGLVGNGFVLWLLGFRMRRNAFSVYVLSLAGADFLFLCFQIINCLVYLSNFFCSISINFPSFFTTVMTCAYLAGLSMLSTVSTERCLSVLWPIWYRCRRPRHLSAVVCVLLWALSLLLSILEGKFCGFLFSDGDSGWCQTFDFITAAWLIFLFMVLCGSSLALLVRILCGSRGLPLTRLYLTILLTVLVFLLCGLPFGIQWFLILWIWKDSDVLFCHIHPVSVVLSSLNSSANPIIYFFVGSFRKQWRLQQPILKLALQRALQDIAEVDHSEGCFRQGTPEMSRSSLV
The assay is described as follows: Surface expression of CD107a and CD63 (flow cytometry), LAD2 cells activated with SP. The class given is cell-based. To be noted: 30 nM, 5 min; SP 300 nM. The protocol:
The granule-associated proteins CD107a and CD63 externalize in the process of degranulation. Their quantification by flow cytometry is a reliable marker of mast cell activation, which is often used for the diagnosis of allergies and anaphylaxis in mast cell activation tests.[49],[50] Thus, the expression of CD107a and CD63 on the cell surface was determined to confirm the effects of PSB-172656 on SP-induced MRGPRX2-mediated degranulation. […] In addition to MRPGRX2, LAD2 cells also express a GPCR that is specifically activated by the complement component C3a.[51] Both receptors can activate Gαi/o proteins to promote MC activation.[48],[52]
MC degranulation was also measured by determining the cell surface expression of CD107a (Lysosomal-Associated Membrane Protein-1, LAMP-1) and CD63 (LAMP-3) after agonist stimulation.[48] LAD2 cells were preincubated with PSB-172656 or vehicle control for 5 min at 37 °C, then activated with SP (0.3 μM) and or C3a (3 nM) for 5 min at 37 °C. After 5 min of incubation, cells were fixed with 500 µL of 4% fixation buffer (Biolegend, Catalog 420801) for 15 min at room temperature. […] Cell surface expression of CD107a and CD63 was measured from the zombie-yellow negative population by a BD LSR II flow cytometer (San Jose, CA, USA) and analyzed by FlowJo software version 10.7.2 (Tree Star Inc., Ashland, OR, USA).[48],[50]

The target of assay [3] is T1, MRGPRX2. The assay is described as follows: TRUPATH Gαq dissociation assay, LN229 cells expressing MRGPRX2. It counts as cell-based. Further details: expressed in transfected cells; host or cells: LN229 human glioblastoma cells; plasmid pLXSN-MRGPRX2 (Addgene #213960). The conditions noted are these: 100 nM, preincubation. The protocol: (§1) Fig. 3 Biological characterization of PSB-172656. a Selectivity of PSB-172656 (100 nM) for MRGPRX2 over MRGPRX1, MRGPRX3, and MRGPRX4 measured in β-arrestin assays utilizing β-arrestin-CHO cells with recombinant expression of the respective receptor. MRGPRX1 was activated by BAM-22P (8.5 µM),[19] MRGPRX2 was activated by CST-14 (1 µM), MRGPRX3 was activated by PSB-20294 (10 µM), MRGPRX4 was activated by PSB-18061 (2.6 µM).[44] Data represent mean values ± SEM of 3-4 biological replicates, performed in duplicates. […] Data are means ± SEM of 3 biological replicates, in duplicates. Statistical significance was determined by one-way ANOVA (Tukey’s multiple comparison) test (ns P > 0.05). […] Data are means ± SEM of 3 biological replicates, performed in duplicates. e Shift assay to determine inhibition type of PSB-172656 versus CST-14. […] Extrapolated data were not used for analysis but only shown for a comprehensive view. f Schild plot for the effect of PSB-172656 on the concentration-response curves for CST-14. […]
(§2) To further investigate PSB-172656 signaling, direct activation of the relevant G protein subunits, Gαq and Gαi1,[32] was studied. This was assessed using G protein dissociation assays and LN229 cells stably overexpressing MRGPRX2 while transiently expressing the investigated G protein (Fig. 3c, d).[47]

Assay [4] has as its target T1, MRGPRX2. The assay is described as follows: TRUPATH Gαi1 dissociation assay, LN229 cells expressing MRGPRX2. The conditions noted are these: 100 nM, preincubation. On the set-up: expressed in transfected cells; host or cells: LN229 human glioblastoma cells; plasmid pLXSN-MRGPRX2 (Addgene #213960). The class given is cell-based. How it is done:
as §1, §2

Molecules are shown by their SMILES.

In the case of `CCCc1c(C)[nH]c2nc3ccccc3n2c1=O` [Compound 1, 2-methyl-3-propylbenzo[4,5]imidazo[1,2-a]pyrimidin-4(1H)-one], the “inhibition of signal induced by carbachol” value in assay [1] is “did not inhibit”.

For `CCc1c(C(C)C)[nH]c2nc3cc(F)c(F)cc3n2c1=O` [Compound 24, 3-ethyl-7,8-difluoro-2-isopropylbenzo[4,5]imidazo [1,2-a] pyrimidin-4(1H)-one], the “effect on SP-induced expression of CD107a and CD63 on the cell surface” value at MRGPRX2 [2] is “completely prevented”. Besides, the “inhibition of CST-14-induced Gαq dissociation” value against MRGPRX2 [3] is on record as “completely inhibited”. The “inhibition of CST-14-induced Gαi1 dissociation” value against MRGPRX2 [4] is listed as “completely inhibited”.
